Results: patent US7157468B2, “Pyrazole derivatives” (Pfizer Inc., priority 2002, dated 2007)

Target: T1, HIV-1 reverse transcriptase (Human immunodeficiency virus type 1 group M subtype B, UniProt P04585)
T1 construct: purified recombinant HIV-1 reverse transcriptase (RT, EC, 2.7.7.49); made in house; host or cells: Escherichia coli
Assay: Inhibition of HIV-1 Reverse Transcriptase Enzyme
Type: biochemical
Settings: purified recombinant HIV-1 RT expressed in Escherichia Coli; [3H]-SPA or [3H]-flashplate enzyme assay; 5% final DMSO
Description: The activity of the compounds of the invention as reverse transcriptase inhibitors may be measured using the following assay.
Inhibition of HIV-1 Reverse Transcriptase Enzyme
Using purified recombinant HIV-1 reverse transcriptase (RT, EC, 2.7.7.49) obtained by expression in Escherichia Coli, a 96-well plate assay system is established for assaying a large number of samples using either the Poly(rA)-oligo(dT) Reverse Transcriptase [3H]-SPA enzyme assay system (Amersham NK9020) or the [3H]-flashplate enzyme assay system (NEN-SMP 103) and following the manufacturer's recommendations. The compounds are dissolved in 100% DMSO and diluted with the appropriate buffer to a 5% final DMSO concentration. The inhibitory activity is expressed in percent inhibition relative to DMSO control.

Compound: Cc1n[nH]c(CC(=O)N2CCc3ccccc3C2)c1Oc1cc(Cl)cc(Cl)c1 [Example 8, 2-[4-(3,5-Dichloro-phenoxy)-5-methyl-2H-pyrazol-3-yl]-1-(3,4-dihydro-1H-isoquinolin-2-yl)-ethanone]
- IC50: 10 nM

Compound: Cc1n[nH]c(CC(=O)N2CCc3ccccc3C2)c1Oc1cc(Cl)cc(C#N)c1 [Example 17]
- IC50: 64 nM
